This note sets out measurements from ChEMBL document CHEMBL3137667, “[Drug-induced liver injury; fourteenth updated edition of the bibliographic database of liver injuries and related drugs]” (Gastroenterol Clin Biol, 2004).

Data set [1] is described as follows: Highest frequency of moderate liver toxicity observed during clinical trials, expressed as a percentage. [column '% BIOL' in source]. To be noted: human.
The conditions of data set [2]: human.
The conditions of data set [3]: human. The source holds these as a separate data set.
The conditions of data set [4]: human. The source holds these as a separate data set.
For data set [5] the following is noted: human, serum.
For data set [6] the following is noted: human. The source holds these as a separate data set.
For data set [7] the following is noted: human, serum, 4383 h.
For data set [8] the following is noted: human, serum. The source holds these as a separate data set.
The conditions of data set [9]: human. This is another data set of the same source.
The conditions of data set [10]: human. The source holds these as a separate data set.
The conditions of data set [11]: human. This is another data set of the same source.
The conditions of data set [12]: human. The source holds these as a separate data set.
Data set [13] in a line: Highest frequency of acute liver toxicity observed during clinical trials, expressed as a percentage. [column '% AIGUE' in source]. To be noted: human.
For data set [14] the following is noted: human. The source holds these as a separate data set.
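Wherever Hepatotoxicity (association with vascular disease) is given: count of indexed literature references reporting vascular liver injury in humans, e.g. peliosis hepatitis, hepatic veno-occlusive disease or Budd-Chiari syndrome.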
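Wherever Hepatotoxicity (benign tumour) is given: value is a count of indexed literature references citing a benign tumour confirmed by histopathology.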
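Wherever Hepatotoxicity (choleostasis) is given: human cholestatic liver injury, shown by histopathology or by peak ALT or AST elevation over alkaline phosphatase ratio below 2, value counts indexed literature reports.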
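Wherever Hepatotoxicity (chronic liver disease) is given: chronic liver injury confirmed by histopathology or persistently raised serum aminotransferase activity beyond 6 months, value given as the count of indexed literature references.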
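Wherever Hepatotoxicity (cirrhosis) is given: value is a count of indexed literature references reporting cirrhosis confirmed by histopathology.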
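Wherever Hepatotoxicity (cytolytic) is given: human cytolytic liver injury, shown by histopathology or by a ratio above 5 of peak ALT or AST elevation to alkaline phosphatase elevation, value counts indexed references.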
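Wherever Hepatotoxicity (granulomatous hepatitis) is given: value is a count of indexed literature references reporting granulomatous liver disease confirmed by histopathology.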
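Wherever Hepatotoxicity (malignant tumour) is given: malignant tumour confirmed by histopathology, value gives the count of indexed literature references reporting it.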
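Wherever Hepatotoxicity (severe hepatitis) is given: human clinical data: severe hepatitis, meaning potentially life-threatening liver failure or clinically observed cases, the value counts how many indexed literature references report it.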
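Wherever Hepatotoxicity (steatosis) is given: steatosis confirmed by histopathology, value is the count of indexed references.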

Consider `CCNC(=O)[C@@H]1CCCN1C(=O)[C@H](CCCNC(=N)N)NC(=O)[C@H](CC(C)C)NC(=O)[C@@H](CC(C)C)NC(=O)[C@H](Cc1ccc(O)cc1)NC(=O)[C@H](CO)NC(=O)[C@H](Cc1c[nH]c2ccccc12)NC(=O)[C@H](Cc1c[nH]cn1)NC(=O)[C@@H]1CCC(=O)N1` [LEUPROLIDE], for which the “Hepatotoxicity (moderate)” value is listed as 2.4% in data set [1] and 3 in data set [8]. The “Hepatotoxicity (steatosis)” value in data set [2] is recorded as 0. The “Hepatotoxicity (malignant tumour)” value in data set [3] is on record as 0. The “Hepatotoxicity (severe hepatitis)” value in data set [4] is on record as 0. The results for the “Hepatotoxicity (acute)” value in data set [5] and in [13] were 0 and 0%, respectively. For the same compound, in data set [6], the “Hepatotoxicity (cirrhosis)” value is on record as 0. Besides, the “Hepatotoxicity (chronic liver disease)” value in data set [7] stood at 0. In addition, in data set [9], the “Hepatotoxicity (benign tumour)” value is 0. Also, the “Hepatotoxicity (choleostasis)” value in data set [10] is given as 0. Further, the “Hepatotoxicity (granulomatous hepatitis)” value in data set [11] is given as 0. Also, in data set [12], the “Hepatotoxicity (association with vascular disease)” value was determined as 0. The “Hepatotoxicity (cytolytic)” value in [14] is given as 0.

As to `O=C(OCC(COC(=O)c1cccnc1)(COC(=O)c1cccnc1)COC(=O)c1cccnc1)c1cccnc1` [NICERITROL], the “Hepatotoxicity (moderate)” value in data set [1] is 5%; in data set [8] it was 1. Also, the “Hepatotoxicity (steatosis)” value in [2] stood at 0. In addition, the “Hepatotoxicity (malignant tumour)” value in [3] turned out to be 0. Also, the “Hepatotoxicity (severe hepatitis)” value in data set [4] amounted to 0. In addition, the “Hepatotoxicity (acute)” value was 0 in data set [5] and 0% in data set [13]. Moreover, in data set [6], the “Hepatotoxicity (cirrhosis)” value is on record as 0. Also, the “Hepatotoxicity (chronic liver disease)” value in data set [7] is given as 0. Moreover, in [9], the “Hepatotoxicity (benign tumour)” value stood at 0. Further, the “Hepatotoxicity (choleostasis)” value in data set [10] is on record as 0. For the same compound, the “Hepatotoxicity (granulomatous hepatitis)” value in [11] stood at 0. Also, the “Hepatotoxicity (association with vascular disease)” value in [12] came out at 0. In data set [14], the “Hepatotoxicity (cytolytic)” value was found to be 0.

With `CNC(=O)C[C@@H](N)C(=O)N[C@@H](C(=O)N[C@@H]1C(=O)N2[C@@H]1SC(C)(C)[C@@H]2C(=O)O)c1ccc(O)cc1` [ASPOXICILLIN], the figures for the “Hepatotoxicity (moderate)” value in data set [1] and in data set [8] were 40% and 20, respectively. In addition, in data set [2], the “Hepatotoxicity (steatosis)” value was 0. For the same compound, in [3], the “Hepatotoxicity (malignant tumour)” value is on record as 0. Besides, the “Hepatotoxicity (severe hepatitis)” value in [4] is reported as 0. Also, the “Hepatotoxicity (acute)” value in data set [5] was 0; in data set [13], 0%. Also, the “Hepatotoxicity (cirrhosis)” value in data set [6] came out at 0. For the same compound, the “Hepatotoxicity (chronic liver disease)” value in data set [7] was 0. In addition, the “Hepatotoxicity (benign tumour)” value in [9] was 0. Besides, in [10], the “Hepatotoxicity (choleostasis)” value was found to be 0. In addition, the “Hepatotoxicity (granulomatous hepatitis)” value in data set [11] came out at 0. For the same compound, the “Hepatotoxicity (association with vascular disease)” value in [12] was determined as 0. Moreover, in data set [14], the “Hepatotoxicity (cytolytic)” value turned out to be 0.

On to `Nc1ncn([C@@H]2O[C@H](CO)[C@@H](O)[C@@H]2O)c(=O)n1` [FAZARABINE], for which the results for the “Hepatotoxicity (moderate)” value in data set [1] (Liver) and in [8] were 46.4% and 1, respectively. In addition, the “Hepatotoxicity (steatosis)” value in [2] is on record as 0. For the same compound, the “Hepatotoxicity (malignant tumour)” value in [3] was 0. The “Hepatotoxicity (severe hepatitis)” value in [4] (Liver) is 0. Besides, the “Hepatotoxicity (acute)” value in data set [5] is 0; in data set [13] (Liver), 0%. In data set [6], the “Hepatotoxicity (cirrhosis)” value is 0. Further, the “Hepatotoxicity (chronic liver disease)” value in [7] came out at 0. Further, the “Hepatotoxicity (benign tumour)” value in [9] is on record as 0. Besides, the “Hepatotoxicity (choleostasis)” value in [10] (Liver) was 0. The “Hepatotoxicity (granulomatous hepatitis)” value in data set [11] (Liver) stood at 0. The “Hepatotoxicity (association with vascular disease)” value in data set [12] is listed as 0. Further, the “Hepatotoxicity (cytolytic)” value in [14] (Liver) was determined as 0.

With `CC(C)[C@H](N)C(=O)OCC(CO)OCn1cnc2c(=O)nc(N)[nH]c21` (some centres undefined) [VALGANCICLOVIR], the “Hepatotoxicity (moderate)” value came out at 3% in data set [1] and 1 in data set [8]. Further, in [2], the “Hepatotoxicity (steatosis)” value was determined as 0. The “Hepatotoxicity (malignant tumour)” value in [3] was determined as 0. Further, the “Hepatotoxicity (severe hepatitis)” value in [4] is 0. The “Hepatotoxicity (acute)” value is recorded as 0 in [5] and 0% in data set [13]. For the same compound, the “Hepatotoxicity (cirrhosis)” value in [6] came out at 0. Further, in data set [7], the “Hepatotoxicity (chronic liver disease)” value worked out at 0. Besides, the “Hepatotoxicity (benign tumour)” value in [9] is listed as 0. For the same compound, in [10], the “Hepatotoxicity (choleostasis)” value stood at 0. Besides, the “Hepatotoxicity (granulomatous hepatitis)” value in data set [11] is 0. In data set [12], the “Hepatotoxicity (association with vascular disease)” value was found to be 0. Also, the “Hepatotoxicity (cytolytic)” value in data set [14] was determined as 0.

On to `C[C@H]1O[C@@H](O[C@H]2[C@@H](O)C[C@H](O[C@H]3[C@@H](O)C[C@H](O[C@H]4CC[C@@]5(C)[C@H](CC[C@@H]6[C@@H]5C[C@@H](O)[C@]5(C)[C@@H](C7=CC(=O)OC7)CC[C@]65O)C4)O[C@@H]3C)O[C@@H]2C)C[C@H](O)[C@@H]1O` [DIGOXIN], for which the “Hepatotoxicity (moderate)” value in data set [1] worked out at 8.3%; in data set [8] it was 1. For the same compound, the “Hepatotoxicity (steatosis)” value in data set [2] is on record as 0. Also, in [3], the “Hepatotoxicity (malignant tumour)” value turned out to be 0. Further, in data set [4], the “Hepatotoxicity (severe hepatitis)” value is recorded as 0. Moreover, the “Hepatotoxicity (acute)” value amounted to 0 in data set [5] and 0% in data set [13]. Moreover, in data set [6], the “Hepatotoxicity (cirrhosis)” value worked out at 0. Further, the “Hepatotoxicity (chronic liver disease)” value in data set [7] came out at 0. The “Hepatotoxicity (benign tumour)” value in data set [9] amounted to 0. The “Hepatotoxicity (choleostasis)” value in data set [10] worked out at 0. Further, the “Hepatotoxicity (granulomatous hepatitis)” value in data set [11] is on record as 0. In addition, the “Hepatotoxicity (association with vascular disease)” value in [12] is on record as 0. In data set [14], the “Hepatotoxicity (cytolytic)” value worked out at 0.

As for `COc1ccc(/C=C/C(=O)Nc2ccccc2C(=O)O)cc1OC`, the entries for the “Hepatotoxicity (moderate)” value in [1] and in data set [8] were 7.5% and 6, respectively. Also, in data set [2], the “Hepatotoxicity (steatosis)” value is given as 0. In [3], the “Hepatotoxicity (malignant tumour)” value is given as 0. In data set [4], the “Hepatotoxicity (severe hepatitis)” value is recorded as 0. In addition, the “Hepatotoxicity (acute)” value in [5] amounted to 1; in data set [13], 0%. Also, the “Hepatotoxicity (cirrhosis)” value in data set [6] is given as 0. In data set [7], the “Hepatotoxicity (chronic liver disease)” value was 0. In [9], the “Hepatotoxicity (benign tumour)” value amounted to 0. For the same compound, the “Hepatotoxicity (choleostasis)” value in data set [10] is reported as 0. For the same compound, the “Hepatotoxicity (granulomatous hepatitis)” value in [11] was 0. Further, the “Hepatotoxicity (association with vascular disease)” value in [12] was 0. In addition, in data set [14], the “Hepatotoxicity (cytolytic)” value amounted to 0.

With `CCCCN(CCCC)CCC(O)c1cc2c(Cl)cc(Cl)cc2c2cc(C(F)(F)F)ccc12` (centres undefined) [HALOFANTRINE], the results for the “Hepatotoxicity (moderate)” value in data set [1] and in [8] were 29% and 8, respectively. The “Hepatotoxicity (steatosis)” value in [2] is 0. Also, in data set [3], the “Hepatotoxicity (malignant tumour)” value came out at 0. Also, the “Hepatotoxicity (severe hepatitis)” value in data set [4] was determined as 0. In addition, the “Hepatotoxicity (acute)” value in data set [5] is reported as 0; in data set [13], 0%. The “Hepatotoxicity (cirrhosis)” value in data set [6] is 0. Also, the “Hepatotoxicity (chronic liver disease)” value in data set [7] was found to be 0. In addition, the “Hepatotoxicity (benign tumour)” value in data set [9] was 0. For the same compound, in data set [10], the “Hepatotoxicity (choleostasis)” value turned out to be 0. In [11], the “Hepatotoxicity (granulomatous hepatitis)” value is 0. Further, in [12], the “Hepatotoxicity (association with vascular disease)” value is recorded as 0. Moreover, in data set [14], the “Hepatotoxicity (cytolytic)” value amounted to 0.

Turning to `CC(Cc1ccccc1)(NC(=O)CN)c1ccccc1` (centres undefined) [REMACEMIDE], the “Hepatotoxicity (moderate)” value in data set [1] is given as 0.9%; in data set [8] it was 3. Also, the “Hepatotoxicity (steatosis)” value in data set [2] was determined as 0. Moreover, in data set [3], the “Hepatotoxicity (malignant tumour)” value turned out to be 0. In data set [4], the “Hepatotoxicity (severe hepatitis)” value is listed as 0. Besides, the “Hepatotoxicity (acute)” value in data set [5] turned out to be 0; in [13] it was 0%. The “Hepatotoxicity (cirrhosis)” value in data set [6] is 0. Besides, the “Hepatotoxicity (chronic liver disease)” value in [7] amounted to 0. The “Hepatotoxicity (benign tumour)” value in data set [9] was determined as 0. The “Hepatotoxicity (choleostasis)” value in data set [10] is reported as 0. Besides, the “Hepatotoxicity (granulomatous hepatitis)” value in [11] was found to be 0. Moreover, the “Hepatotoxicity (association with vascular disease)” value in data set [12] is given as 0. In data set [14], the “Hepatotoxicity (cytolytic)” value is listed as 0.

Consider `CCN(CC)C(=O)N1CCN(C)CC1` [DIETHYLCARBAMAZINE], for which the “Hepatotoxicity (moderate)” value in data set [1] was found to be 0%; in data set [8] it was 1. Moreover, the “Hepatotoxicity (steatosis)” value in data set [2] was found to be 0. Further, the “Hepatotoxicity (malignant tumour)” value in data set [3] came out at 0. The “Hepatotoxicity (severe hepatitis)” value in data set [4] was determined as 0. The figures for the “Hepatotoxicity (acute)” value in [5] and in data set [13] were 0 and 0%, respectively. For the same compound, the “Hepatotoxicity (cirrhosis)” value in data set [6] is 0. The “Hepatotoxicity (chronic liver disease)” value in data set [7] is listed as 0. Besides, the “Hepatotoxicity (benign tumour)” value in data set [9] amounted to 0. Besides, the “Hepatotoxicity (choleostasis)” value in [10] was 0. Further, the “Hepatotoxicity (granulomatous hepatitis)” value in data set [11] turned out to be 0. Besides, the “Hepatotoxicity (association with vascular disease)” value in data set [12] is on record as 0. For the same compound, the “Hepatotoxicity (cytolytic)” value in data set [14] worked out at 0.

Turning to `OC(CCCN1CCCCC1)(c1ccccc1)c1ccccc1` [DIPHENIDOL], the “Hepatotoxicity (moderate)” value stood at 0% in data set [1] and 0 in [8]. In addition, the “Hepatotoxicity (steatosis)” value in data set [2] amounted to 0. In addition, in [3], the “Hepatotoxicity (malignant tumour)” value turned out to be 0. In addition, in data set [4], the “Hepatotoxicity (severe hepatitis)” value is 0. Further, the “Hepatotoxicity (acute)” value is 1 in data set [5] and 0% in data set [13]. Moreover, in data set [6], the “Hepatotoxicity (cirrhosis)” value is 0. Besides, the “Hepatotoxicity (chronic liver disease)” value in data set [7] is on record as 0. Moreover, in data set [9], the “Hepatotoxicity (benign tumour)” value was 0. The “Hepatotoxicity (choleostasis)” value in data set [10] stood at 0. In addition, the “Hepatotoxicity (granulomatous hepatitis)” value in [11] is recorded as 0. The “Hepatotoxicity (association with vascular disease)” value in [12] was determined as 0. For the same compound, the “Hepatotoxicity (cytolytic)” value in [14] was 0.
